Positions of bridges follow the written chain, without caps; N, C: chain ends. Residues, ends and D or L forms follow the SMILES beside them. No end group written: not given here.
Experiments:
Assay in all cases: Cell adhesion to peptide-coated wells compared with thrombospondin
Type in all cases: cell-based
Conditions in all cases: two micrograms of peptide dried on well, 200,000 cells per well, 30 minutes at 37°C, relative to thrombospondin
[1] = test system: Bovine Aortic Endothelia 1 Cells
Protocol: [Worded in the source for another cell line; this cell line is reported under the same test.] (§1) In this example a series of peptides were tested to determine the abilities of the peptides to bind various cells as compared to thrombospondin. It is believed that thrombospondin acts in metastasis through its adhesive properties. An assay was developed, generally in accordance with the disclosure of Tuszynski et al. (Anal. Bio. (1990) 184:189-91) which evaluates the ability of cells to adhere to the thrombospondin fragments or analogs of the invention. In this assay, thrombospondin (purified by the method of Tuszynski et al., J. Biol. Chem. (1985) 260:12240-5) served as a positive control, bovine serum albumin (BSA) (Sigma Chemical Co.) and the peptides ANKHYF and VCTGSC and TCVCGS served as negative controls. The cell types evaluated were B16F10 mouse melanoma cells, A549 human lung adrenocarcinoma cells, bovine aortic smooth muscle cells, and rabbit smooth muscle cells.
(§2) Thrombospondin analogs of the invention were synthesized as described in Examples 1-4. Two micrograms of peptide or control proteins were air dried overnight on the wells of a 96-well microtiter plate. Wells were then washed with HEPES-buffered saline and blocked for 1 hour with 1% fatty acid free BSA in HEPES-buffered saline.
(§3) The various cells were grown and harvested during log phase of growth using standard procedures. The harvested cells were washed two times in serum-free Dulbecco's minimum essential medium (DMEM) (Flow Laboratories) and suspended in HEPES-buffered saline, containing 5 mM glucose and 100 µM MgCl2 at a final concentration of […]. Of the cell suspension 200,000 cells per well was added to each well of the microtiter dish containing the various ligands and the dish incubated at 37°C in a CO2 incubator for 30 minutes. Nonadherent cells were removed by aspiration and the wells washed three times with 200 µl of PBS. The total cell-associated protein was determined by dissolving the attached cells directly in the microtiter wells with 200 µl of the Pierce BCA working solution (Pierce Chem. Co. Booklet No. 23225 (1987)). The plate was covered with an adhesive mylar sheet (Flow Labs) and incubated at 60°C for 30 minutes. Plates were allowed to cool to room temperature, cover sheets were removed, and the absorbance of each well was determined at 562 nm with a microtiter plate reader (Biotek, Burlington, Vermont.) Absorbances were converted to number of adherent cells by means of an empirically determined conversion factor.

[2] = test system: A549 Human Lung Adenocarcinoma
Protocol: as §1, §2, §3

[3] = test system: B16-F10 Mouse Melanoma
Protocol: as §1, §2, §3

[4] = test system: Rabbit Smooth Muscle
Protocol: as §1, §2, §3

With “Blocked CSVTCG [Blocked CSVTCG (SEQ ID NO:1)]” the “Percent of TSP-adherent Cells” value [1] was 22%, the “Percent of TSP-adherent Cells” value [2] was 44% and the “Percent of TSP-adherent Cells” value [3] was 32%. For the same compound, the “Percent of TSP-adherent Cells” value [4] was 46%.
For ANKHYF [ANKHYF, reference compound], the “Percent of TSP-adherent Cells” value [1] was 0%, the “Percent of TSP-adherent Cells” value [2] was 10% and the “Percent of TSP-adherent Cells” value [3] was 8%. For the same compound, the “Percent of TSP-adherent Cells” value [4] was 17%.
In the case of `C[C@@H](O)[C@H](NC(=O)[C@H](CO)NC(=O)[C@@H](N)CS)C(=O)N[C@@H](CO)C(=O)N[C@@H](CS)C(=O)N[C@@H](CCCNC(=N)N)C(=O)O` [CSTSCR (SEQ ID NO:3), CSTSCR] (H-CSTSCR-OH), the “Percent of TSP-adherent Cells” value [1] is reported as 65%, the “Percent of TSP-adherent Cells” value [2] is reported as 104% and the “Percent of TSP-adherent Cells” value [3] is reported as 39%. For the same compound, the “Percent of TSP-adherent Cells” value [4] was 82%.
In the case of ASVTAR [ASVTAR (SEQ ID NO:7), ASVTAR], the “Percent of TSP-adherent Cells” value [3] is reported as 39%.
For `C[C@@H](O)[C@H](NC(=O)[C@H](CO)NC(=O)[C@@H](N)CS)C(=O)N[C@@H](CO)C(=O)N[C@@H](CS)C(=O)NCC(=O)O` [CSTSCG (SEQ ID NO:4), CSTSCG] (H-CSTSCG-OH), the “Percent of TSP-adherent Cells” value [1] was 39%, the “Percent of TSP-adherent Cells” value [2] was 23% and the “Percent of TSP-adherent Cells” value [3] was 37%. For the same compound, the “Percent of TSP-adherent Cells” value [4] was 22%.
For `CC(C)[C@@H]1NC(=O)[C@H](CO)NC(=O)[C@@H](N)CSSC[C@@H](C(=O)NCC(=O)O)NC(=O)[C@H]([C@@H](C)O)NC1=O` [Cyclic CSVTCG (SEQ ID NO:1), cyclic CSVTCG-Acid] (H-CSVTCG-OH; disulfide 1-5), the “Percent of TSP-adherent Cells” value [1] was 25%, the “Percent of TSP-adherent Cells” value [2] was 29% and the “Percent of TSP-adherent Cells” value [3] was 30%. The “Percent of TSP-adherent Cells” value [4] was 43%.
`CC(C)[C@H](NC(=O)[C@H](CO)NC(=O)[C@@H](N)CS)C(=O)N[C@H](C(=O)N[C@@H](CS)C(=O)NCC(=O)O)[C@@H](C)O` [CSVTCG (SEQ ID NO:1), CSVTCG] (H-CSVTCG-OH) was tested, and the “Percent of TSP-adherent Cells” value [1] was 49%, the “Percent of TSP-adherent Cells” value [2] was 29% and the “Percent of TSP-adherent Cells” value [3] was 40%. The “Percent of TSP-adherent Cells” value [4] was 44%.
`CC(C)[C@H](NC(=O)[C@H](CS)NC(=O)[C@@H](N)[C@@H](C)O)C(=O)N[C@@H](CS)C(=O)NCC(=O)N[C@@H](CO)C(=O)O` [TCVCGS, reference compound] (H-TCVCGS-OH) was tested, and the “Percent of TSP-adherent Cells” value [1] was 6%, the “Percent of TSP-adherent Cells” value [2] was 10% and the “Percent of TSP-adherent Cells” value [3] was 10%. The “Percent of TSP-adherent Cells” value [4] was 8%.
`CC(C)[C@H](NC(=O)[C@H](CCCNC(=N)N)NC(=O)[C@@H](N)CS)C(=O)N[C@H](C(=O)N[C@@H](CS)C(=O)NCC(=O)O)[C@@H](C)O` [CRVTCG (SEQ ID NO:5), CRVTCG] (H-CRVTCG-OH) was tested, and the “Percent of TSP-adherent Cells” value [1] was 80%, the “Percent of TSP-adherent Cells” value [2] was 79% and the “Percent of TSP-adherent Cells” value [3] was 92%. The “Percent of TSP-adherent Cells” value [4] was 82%.
With `CC(C)[C@H](NC(=O)[C@H](CO)NC(=O)[C@@H](N)CS)C(=O)N[C@H](C(=O)N[C@@H](CS)C(=O)N[C@@H](CCCNC(=N)N)C(=O)O)[C@@H](C)O` [CSVTCR (SEQ ID NO:2), CSVTCR] (H-CSVTCR-OH) the “Percent of TSP-adherent Cells” value [1] was 99%, the “Percent of TSP-adherent Cells” value [2] was 90% and the “Percent of TSP-adherent Cells” value [3] was 92%. For the same compound, the “Percent of TSP-adherent Cells” value [4] was 159%.
In the case of `CC(C)[C@H](N)C(=O)N[C@@H](CS)C(=O)N[C@H](C(=O)NCC(=O)N[C@@H](CO)C(=O)N[C@@H](CS)C(=O)O)[C@@H](C)O` [VCTGSC, reference compound] (H-VCTGSC-OH), the “Percent of TSP-adherent Cells” value [1] is reported as 3%, the “Percent of TSP-adherent Cells” value [2] is reported as 8% and the “Percent of TSP-adherent Cells” value [3] is reported as 2%. For the same compound, the “Percent of TSP-adherent Cells” value [4] was 17%.
